As a reminder, the IC50 is the midpoint of a concentration-inhibition curve. Read a high IC50 as a need for much substance.

This assay deals with PIK3CG (human) (UniProt P48736). As to the kind of experiment: Assessment of PIK3CG Kinase Activity.
Chain of PIK3CG (human) (P48736 whole entry, looked up): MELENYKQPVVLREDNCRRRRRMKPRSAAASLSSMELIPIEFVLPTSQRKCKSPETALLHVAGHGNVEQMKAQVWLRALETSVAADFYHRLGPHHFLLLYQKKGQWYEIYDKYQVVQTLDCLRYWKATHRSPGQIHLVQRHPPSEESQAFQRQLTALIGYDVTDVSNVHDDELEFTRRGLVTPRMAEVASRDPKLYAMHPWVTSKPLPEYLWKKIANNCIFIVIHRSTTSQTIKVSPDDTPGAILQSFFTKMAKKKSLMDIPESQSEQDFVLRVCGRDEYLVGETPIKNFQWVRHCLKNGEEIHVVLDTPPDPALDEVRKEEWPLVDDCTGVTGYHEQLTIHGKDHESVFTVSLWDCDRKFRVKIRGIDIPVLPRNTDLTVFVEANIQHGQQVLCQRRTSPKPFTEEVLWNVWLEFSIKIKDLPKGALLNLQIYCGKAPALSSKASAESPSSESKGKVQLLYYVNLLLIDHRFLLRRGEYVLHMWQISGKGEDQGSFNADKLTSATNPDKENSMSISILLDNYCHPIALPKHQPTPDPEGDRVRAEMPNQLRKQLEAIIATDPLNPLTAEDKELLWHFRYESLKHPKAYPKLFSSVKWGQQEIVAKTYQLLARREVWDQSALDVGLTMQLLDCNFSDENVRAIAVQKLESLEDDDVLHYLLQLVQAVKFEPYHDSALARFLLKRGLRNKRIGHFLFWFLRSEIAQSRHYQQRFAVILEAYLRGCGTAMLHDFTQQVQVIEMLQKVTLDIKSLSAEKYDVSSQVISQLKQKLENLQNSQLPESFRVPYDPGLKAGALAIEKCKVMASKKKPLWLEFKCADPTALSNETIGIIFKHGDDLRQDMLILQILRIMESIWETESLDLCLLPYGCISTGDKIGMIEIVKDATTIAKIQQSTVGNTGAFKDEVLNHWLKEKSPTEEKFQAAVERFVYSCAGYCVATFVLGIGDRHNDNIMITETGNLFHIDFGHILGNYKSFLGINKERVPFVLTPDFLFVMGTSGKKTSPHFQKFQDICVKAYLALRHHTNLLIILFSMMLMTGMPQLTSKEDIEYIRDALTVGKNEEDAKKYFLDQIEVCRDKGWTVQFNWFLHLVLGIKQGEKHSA
Compound `COc1cc2c(Oc3ccc(C(O)c4ccccc4)cc3)c(C(=O)Nc3nn[nH]n3)sc2cc1C` (configuration not stated) gave a half-inhibitory concentration (IC50) of 8 nM. Turning to `COc1cc2c(Oc3ccc(C4CC(C)(C)CC(C)(C)C4)cc3)c(C(=O)Nc3nn[nH]n3)sc2cc1C`, the IC50 worked out at 325 nM. Consider `COc1cc2sc(C(=O)Nc3nnn[nH]3)c(Oc3ccc(CCCSc4ccc(Cl)cc4)cc3)c2cc1C`, for which the 50% inhibitory concentration (IC50) is 2610 nM.

Regarding `COc1cc2c(OC[C@H](C)c3ccccc3)c(C(=O)Nc3nn[nH]n3)sc2cc1C`, the concentration for half-maximal inhibition (IC50) is 56 nM. Under `COc1cc2c(Oc3ccc(C(=O)c4ccccc4)cc3)c(C(=O)Nc3nn[nH]n3)sc2cc1C` stands 27 nM; under `COc1cc2sc(C(=O)Nc3nn[nH]n3)c(Oc3cccc(C(=N)N)c3)c2cc1C`, 388 nM. `COc1cc2c(Oc3ccc(C4CCN(C(C)=O)CC4)cc3)c(C(=O)Nc3nn[nH]n3)sc2cc1C` gave a half-maximal inhibitory concentration (IC50) of 14 nM.

On to `COc1cc2sc(C(=O)Nc3nnn[nH]3)c(Oc3ccc(CCCSC4CCCCC4)cc3)c2cc1C`, for which the IC50 amounted to 240 nM. Under `COc1cc2c(Oc3ccc(C4CCN(C(=O)C(C)C)CC4)cc3)c(C(=O)Nc3nn[nH]n3)sc2cc1C` stands 11 nM.

The compound `COc1cc2c(Oc3ccc(C4CCNCC4)cc3)c(C(=O)Nc3nn[nH]n3)sc2cc1C` showed a half-maximal inhibitory concentration (IC50) of 365 nM. In turn, `COc1cc2sc(C(=O)Nc3nnn[nH]3)c(OCc3ccc4ccccc4c3)c2cc1OC` registered a concentration for half-maximal inhibition (IC50) of 210 nM. Compound `COc1cc2c(Oc3ccc(C4CCCC(O)C4)cc3)c(C(=O)Nc3nn[nH]n3)sc2cc1C` (configuration not stated) gave an IC50 of 8 nM.

`COc1cc2c(Oc3ccc(C4CCN(C(=O)C(C)(C)NC(=O)OC(C)(C)C)CC4)cc3)c(C(=O)Nc3nn[nH]n3)sc2cc1C` registered a half-maximal inhibitory concentration (IC50) of 20 nM.

`COc1cc2c(Oc3ccc(C(C4CCCCC4)N4CCCCC4)cc3)c(C(=O)Nc3nn[nH]n3)sc2cc1C` (configuration not stated): the IC50 came out at 715 nM. Under `COc1cc2c(Oc3ccc(C4CCOCC4)cc3)c(C(=O)Nc3nn[nH]n3)sc2cc1C` stands 9 nM; under `COc1cc2c(Oc3ccc(C4CCSCC4)cc3)c(C(=O)Nc3nn[nH]n3)sc2cc1C`, 8 nM; under `COc1cc2c(Oc3ccc(C(C)(C)C)c(C(C)(C)C)c3)c(C(=O)Nc3nn[nH]n3)sc2cc1C`, 2340 nM.
